Patent publication US11203591B2, “Substituted 6-azabenzimidazole compounds” (Gilead Sciences, Inc., priority 2018, dated 2021)

Target: human HPK1 (MAP4K1) (Homo sapiens (Human), UniProt Q92918)
Test: HPK1 IC50 Assay (TR-FRET peptide phosphorylation)
Assay type: biochemical
Conditions: recombinant HPK1 kinase domain 0.15 nM, 10 μM ATP, 1 μM STK S1 peptide; geometric mean of multiple experiments
How it was run: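 Pre-activated, dually phosphorylated baculovirus-expressed HPK1 kinase domain (0.15 nM) preincubated 15 min with compound, then reacted 3 h at 25° C with 10 μM ATP and 1 μM STK S1 peptide in BES pH 7.0 buffer. Phosphopeptide read by TR-FRET (665/620 nm); four-parameter fit, geometric-mean IC50.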

Sequence of human HPK1 (MAP4K1) (Q92918 17-274): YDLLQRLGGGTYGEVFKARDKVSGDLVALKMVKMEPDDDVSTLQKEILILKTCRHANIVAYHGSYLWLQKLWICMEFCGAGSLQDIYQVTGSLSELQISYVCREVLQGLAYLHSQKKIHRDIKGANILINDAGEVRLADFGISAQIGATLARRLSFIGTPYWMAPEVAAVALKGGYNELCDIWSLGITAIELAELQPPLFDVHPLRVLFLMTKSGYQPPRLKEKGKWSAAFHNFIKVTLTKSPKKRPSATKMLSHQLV

| SMILES | IC50 |
| --- | --- |
| CNC(=O)c1cc(Nc2nc(-c3ccc4c(c3)N([C@H]3C[C@@H](N5CCCCC5)C3)C(=O)C43CCN(C(=O)[C@@H](C)O)CC3)cc3ncn(C(C)C)c23)ccc1C [Example 147] | 0.2 nM |
| CNC(=O)c1cc(Nc2nc(-c3ccc4c(c3)N([C@H]3C[C@@H](N5CCCCC5)C3)C(=O)C43CCN(C(=O)C45CC(O)(C4)C5)CC3)cc3ncn(C(C)C)c23)ccc1C [Example 148] | 0.2 nM |
| CNC(=O)c1cc(Nc2nc(-c3ccc4c(c3)N([C@H]3C[C@@H](N5CCCCC5)C3)C(=O)C43CCN(C(=O)C4(C)CCC4)CC3)cc3ncn(C4CC4)c23)ccc1C [Example 149] | 0.1 nM |
| CNC(=O)c1cc(Nc2nc(-c3ccc4c(c3)N([C@H]3C[C@@H](N5CCCCC5)C3)C(=O)C43CCN(C(=O)C4(C)CC4)CC3)cc3ncn(C4CC4)c23)ccc1C [Example 150] | 0.1 nM |
| CNC(=O)c1cc(Nc2nc(-c3ccc4c(c3)N([C@H]3C[C@@H](N5CCCCC5)C3)C(=O)C43CCN(C(=O)[C@@H](C)O)CC3)cc3ncn(C4CC4)c23)ccc1C [Example 151] | 0.05 nM |
| CNC(=O)c1cc(Nc2nc(-c3ccc4c(c3)N([C@H]3C[C@@H](N5CCCCC5)C3)C(=O)C43CCN(C(=O)C4(C)CC4)CC3)cc3ncn(C(C)C)c23)ccc1C [Example 152, 5-((3-isopropyl-6-(1′-(1-methylcyclopropane-1-carbonyl)-2-oxo-1-((1s,3s)-3-(piperidin-1-yl)cyclobutyl)spiro[indoline-3,4′-piperidin]-6-yl)-3H-imidazo[4,5-c]pyridin-4-yl)amino)-N,2-dimethylbenzamide] | 0.2 nM |
| CNC(=O)c1cc(Nc2nc(-c3ccc4c(c3)N([C@H]3C[C@@H](N5CCCCC5)C3)C(=O)C43CCN(C(=O)C4COC4)CC3)cc3ncn(C4CC4)c23)ccc1C [Example 153] | 0.1 nM |
| CNC(=O)c1cc(Nc2nc(-c3ccc4c(c3)N([C@H]3C[C@@H](N5CCCCC5)C3)C(=O)C43CCN(C(=O)C45CC(F)(C4)C5)CC3)cc3ncn(C4CC4)c23)ccc1C [Example 154] | 0.06 nM |
| CNC(=O)c1cc(Nc2nc(-c3ccc4c(c3)N([C@H]3C[C@@H](N5CCCCC5)C3)C(=O)C43CCN(C(=O)C4CCC4)CC3)cc3ncn(C4CC4)c23)ccc1C [Example 155] | 0.06 nM |
| CNC(=O)c1cc(Nc2nc(-c3ccc4c(c3)N([C@H]3C[C@@H](N5CCCCC5)C3)C(=O)C43CCN(C(=O)C45CC(C4)C5)CC3)cc3ncn(C4CC4)c23)ccc1C [Example 156] | 0.06 nM |
| CC[C@H](C)n1cnc2cc(-c3ccc4c(c3)N([C@H]3C[C@@H](N5CCC[C@@H](F)C5)C3)C(=O)C43CCN(C(C)=O)CC3)nc(Nc3ccc(C)c(C(=O)NC)c3)c21 [Example 157, 5-((6-(1′-acetyl-1-((1S,3R)-3-((R)-3-fluoropiperidin-1-yl)cyclobutyl)-2-oxospiro[indoline-3,4′-piperidin]-6-yl)-3-((S)-sec-butyl)-3H-imidazo[4,5-c]pyridin-4-yl)amino)-N,2-dimethylbenzamide] | 0.2 nM |
| CC[C@H](C)n1cnc2cc(-c3ccc4c(c3)N([C@H]3C[C@@H](N5CCC6(C5)CC6(F)F)C3)C(=O)C43CCN(C(C)=O)CC3)nc(Nc3ccc(C)c(C(=O)NC)c3)c21 (stereo partly drawn) [Example 158] | 0.2 nM |
| CNC(=O)c1cc(Nc2nc(-c3ccc4c(c3)N([C@H]3C[C@@H](N5CCC(C)(C)C5)C3)C(=O)C43CCN(C(C)=O)CC3)cc3ncn(C4CC4)c23)ccc1C [Example 159] | 0.1 nM |
| CNC(=O)c1cc(Nc2nc(-c3ccc4c(c3)N([C@H]3C[C@@H](N5CC(C)(C)CC(C)(C)C5)C3)C(=O)C43CCN(C(C)=O)CC3)cc3ncn(C4CC4)c23)ccc1C [Example 160] | 0.08 nM |
| CNC(=O)c1cc(Nc2nc(-c3ccc4c(c3)N([C@H]3C[C@@H](N5CCCC(C)(C)C5)C3)C(=O)C43CCN(C(C)=O)CC3)cc3ncn(C4CC4)c23)ccc1C [Example 161] | 0.06 nM |
| CNC(=O)c1cc(Nc2nc(-c3ccc4c(c3)N([C@H]3C[C@@H](N5CCC[C@@H](F)C5)C3)C(=O)C43CCN(C(C)=O)CC3)cc3ncn(C(C)C)c23)ccc1C [Example 162] | 0.1 nM |
| CNC(=O)c1cc(Nc2nc(-c3ccc4c(c3)N([C@H]3C[C@@H](N5CCCC6(C5)CC6(F)F)C3)C(=O)C43CCN(C(C)=O)CC3)cc3ncn(C4CC4)c23)ccc1C (stereo partly drawn) [Example 163] | 0.1 nM |
| CNC(=O)c1cc(Nc2nc(-c3ccc4c(c3)N([C@H]3C[C@@H](N5CCC6(C5)CC6(F)F)C3)C(=O)C43CCN(C(C)=O)CC3)cc3ncn(C(C)C)c23)ccc1C (stereo partly drawn) [Example 164] | 0.2 nM |
| CNC(=O)c1cc(Nc2nc(-c3ccc4c(c3)N([C@H]3C[C@@H](N5CCC(C)(C)C5)C3)C(=O)C43CCN(C(C)=O)CC3)cc3ncn(C(C)C)c23)ccc1C [Example 165] | 0.1 nM |
| CNC(=O)c1cc(Nc2nc(-c3ccc4c(c3)N([C@H]3C[C@@H](N5CCCC6(CC6)C5)C3)C(=O)C43CCN(C(C)=O)CC3)cc3ncn(C4CC4)c23)ccc1C [Example 166] | 0.1 nM |

| SMILES | IC50 |
| --- | --- |
| CNC(=O)c1cc(Nc2nc(-c3ccc4c(c3)N([C@H]3C[C@@H](N5CCCCC5)C3)C(=O)C43CCN(S(=O)(=O)C4CC4)CC3)cc3ncn(C4CC4)c23)ccc1C [Example 167] | 0.1 nM |
| CNC(=O)c1cc(Nc2nc(-c3ccc4c(c3)N([C@H]3C[C@@H](N5CCCCC5)C3)C(=O)C43CCN(S(C)(=O)=O)CC3)cc3ncn(C4CC4)c23)ccc1C [Example 168] | 0.1 nM |
| CC[C@H](C)n1cnc2cc(-c3ccc4c(c3)N([C@H]3C[C@@H](N5CCCCC5)C3)C(=O)C43CCN(C(=O)OC)CC3)nc(Nc3ccc(C)c(C(=O)NC)c3)c21 [Example 169] | 0.1 nM |
| CNC(=O)c1cc(Nc2nc(-c3ccc4c(c3)N([C@H]3C[C@@H](N5CCC[C@@H](F)C5)C3)C(=O)C43CCN(C4COC4)CC3)cc3ncn(C(C)C)c23)c(F)cc1C [Example 170, 4-fluoro-5-((6-(1-((1S,3s)-3-((R)-3-fluoropiperidin-1-yl)cyclobutyl)-1′-(oxetan-3-yl)-2-oxospiro[indoline-3,4′-piperidin]-6-yl)-3-isopropyl-3H-imidazo[4,5-c]pyridin-4-yl)amino)-N,2-dimethylbenzamide] | 0.8 nM |
| CCNC(=O)c1cc(Nc2nc(-c3ccc4c(c3)N([C@H]3C[C@@H](N5CCC[C@@H](F)C5)C3)C(=O)C43CCN(C4COC4)CC3)cc3ncn(C(C)C)c23)c(F)cc1C [Example 171] | 0.2 nM |
| Cc1cc(F)c(Nc2nc(-c3ccc4c(c3)N([C@H]3C[C@@H](N5CCC[C@@H](F)C5)C3)C(=O)C43CCN(C4COC4)CC3)cc3ncn(C(C)C)c23)cc1C(=O)NC(C)C [Example 172] | 0.3 nM |
| CNC(=O)c1cc(Nc2nc(-c3ccc4c(c3)N([C@H]3C[C@@H](N5CCCCC5)C3)C(=O)C43CCN(C4COC4)CC3)cc3ncn(C4CC4)c23)ccc1C [Example 173] | 0.08 nM |
| Cc1ccc(Nc2nc(-c3ccc4c(c3)N([C@H]3C[C@@H](N5CCCCC5)C3)C(=O)C4(C)C)cc3ncn(C(C)C)c23)cc1C(=O)NC1(CF)CC1 [Example 174, 5-((6-(3,3-dimethyl-2-oxo-1-((1s,3s)-3-(piperidin-1-yl)cyclobutyl)indolin-6-yl)-3-isopropyl-3H-imidazo[4,5-c]pyridin-4-yl)amino)-N-(1-(fluoromethyl)cyclopropyl)-2-methylbenzamide] | 0.09 nM |
| CNC(=O)c1cc(Nc2nc(-c3ccc4c(c3)N([C@H]3C[C@@H](N5CCCCC5)C3)C(=O)C4(C)C)cc3ncn(C(C)C)c23)c(F)cc1C [Example 175] | 0.1 nM |
| Cc1cc(F)c(Nc2nc(-c3ccc4c(c3)N([C@H]3C[C@@H](N5CCCCC5)C3)C(=O)C4(C)C)cc3ncn(C(C)C)c23)cc1C(=O)NC(C)C [Example 176] | 0.2 nM |
| CNC(=O)c1cc(Nc2nc(-c3ccc4c(c3)N([C@H]3C[C@@H](N5CCCCC5)C3)C(=O)C43CN(C(C)=O)C3)cc3ncn(C(C)C)c23)c(F)cc1C [Example 177] | 0.4 nM |
| CCNC(=O)c1cc(Nc2nc(-c3ccc4c(c3)N([C@H]3C[C@@H](N5CCCCC5)C3)C(=O)C43CN(C(C)=O)C3)cc3ncn(C(C)C)c23)c(F)cc1C [Example 178] | 0.3 nM |
| CC(=O)N1CC2(C1)C(=O)N([C@H]1C[C@@H](N3CCCCC3)C1)c1cc(-c3cc4ncn(C(C)C)c4c(Nc4cc(C(=O)NC(C)C)c(C)cc4F)n3)ccc12 [Example 179] | 1.1 nM |
| CC(=O)N1CCC2(CC1)C(=O)N([C@H]1C[C@@H](N3CCCCC3)C1)c1cc(-c3cc4ncn(C(C)C)c4c(Nc4cc(C(=O)NC(C)C)c(F)cc4F)n3)ccc12 [Example 180] | 0.2 nM |
| CNC(=O)c1cc(Oc2nc(-c3ccc4c(c3)N([C@H]3C[C@@H](N5CCC(C)(C)C5)C3)C(=O)C43CCN(C(C)=O)CC3)cc3ncn(C(C)C)c23)ccc1C [Example 181] | 0.2 nM |
| CNC(=O)c1cc(Nc2nc(-c3ccc4c(c3)N([C@H]3C[C@@H](N5CCCCC5)C3)C(=O)C4(C)C)cc3ncn(C(C)C)c23)c(F)cc1F [Example 182] | 0.2 nM |
| Cc1ccc(Nc2nc(-c3ccc4c(c3)N([C@H]3C[C@@](C)(N5CCCCC5)C3)C(=O)C4(C)C)cc3ncn(C4CC4)c23)cc1C(N)=O [Example 183, 5-((3-cyclopropyl-6-(3,3-dimethyl-1-((1s,3s)-3-methyl-3-(piperidin-1-yl)cyclobutyl)-2-oxoindolin-6-yl)-3H-imidazo[4,5-c]pyridin-4-yl)amino)-2-methylbenzamide] | 0.05 nM |
| Cc1ccc(Nc2nc(-c3ccc4c(c3)N([C@H]3C[C@@H](N5CCCCC5)C3)C(=O)C4(F)F)cc3ncn(C4CC4)c23)cc1C(N)=O [Example 184] | 0.9 nM |
| Cc1c(C(=O)NC2(C(F)F)CC2)cc(Nc2nc(-c3cnc4c(c3)N([C@H]3C[C@@](C)(N5CCCCC5)C3)C(=O)C4(C)C)cc3ncn(C(C)C)c23)c(F)c1F [Example 185, N-(1-(difluoromethyl)cyclopropyl)-5-((6-(3,3-dimethyl-1-((1s,3s)-3-methyl-3-(piperidin-1-yl)cyclobutyl)-2-oxo-2,3-dihydro-1H-pyrrolo[3,2-b]pyridin-6-yl)-3-isopropyl-3H-imidazo[4,5-c]pyridin-4-yl)amino)-3,4-difluoro-2-methylbenzamide] | 0.1 nM |
